The subject of one data set is Alternaria solani. In words: Example M: in vivo test on Alternaria solani (leaf blotch disease/tomato/protective). As to conditions: 168 h, tomato, protective, 500 ppm active substance, assessed 7 days after inoculation, read-out: % Wirkungsgrad (activity level). In outline:
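Alternaria solani infection on tomato scored 7 days post-inoculation. Before inoculation, young plants received a protective spray at the stated application dose; formulation was compound mixed with N,N-dimethylformamide and emulsifier, water-diluted.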

Data set [1] is described as follows: determination of the log P values by HPLC on a reverse phase column (C18), EEC-Directive 79/831 Annex V.A8.
The next data set concerns Pyricularia grisea. It counts as in vivo. As to conditions: 500 ppm; rice plants sprayed 24 hours before inoculation; scored after 6 days.
In data set [2] the test system is Fusarium graminearum. The experiment in a line: microbe, parasite or virus in culture. It counts as cell-based.
In a further data set the test system is Fusarium proliferatum. In words: Example I: production of fumonisin FB1 by Fusarium proliferatum (microtitre plates). The class given is cell-based. As to conditions: 120 h.
The subject of data set [3] is Sphaerotheca fuliginea. The experiment in a line: Example L: in vivo test on Sphaerotheca fuliginea (powdery mildew on cucumber/protective). As to conditions: Podosphaera fuliginea, 168 h, cucumber, protective, assessment 7 days after inoculation, read-out: % Wirkungsgrad. In outline:
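Young cucumber plants sprayed at stated dosage with compound in DMF/alkylaryl polyglycol ether emulsifier diluted in water; inoculated with S. fuliginea spores one day later. Kept in greenhouse at 70% relative humidity, 23° C; protective activity assessed 7 days after inoculation.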

The subject of another data set is Plasmopara viticola. The experiment in a line: Example N: in vivo test on Plasmopara viticola (downy mildew, vine/protective). As to conditions: 144 h, vine, protective, assessment 6 days after inoculation, read-out: % Wirkungsgrad. In outline: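 Assessment of downy mildew on vines took place 6 days post-inoculation, after 1 day of moist incubation. Before infection, the young plants received a protective spray of compound emulsified with alkylaryl polyglycol ethers and diluted with water to the stated application rate.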

For the next data set, the system named is Venturia inaequalis. In words: Example O: in vivo test on Venturia inaequalis (apple scab/protective). As to conditions: 240 h, protective, assessment 10 days after inoculation, read-out: % Wirkungsgrad. In outline:
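Young plants received a preventive spray of compound formulated as an emulsifier-containing aqueous dilution at the given application rate, then were inoculated with apple scab fungus. Disease was scored 10 days post-inoculation.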

The next data set relates to Botrytis cinerea. The experiment in a line: Example P: in vivo test on Botrytis cinerea (gray mould on bean/protective). As to conditions: 48 h, bean, protective, 250 ppm active substance, assessed 2 days after inoculation, read-out: % Wirkungsgrad (activity level). The procedure, abridged:
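Infection blotch size on leaves was scored 2 days after placing 2 Botrytis-colonised agar pieces per leaf. Inoculation followed drying of a protective spray applied to young plants at the stated dosage. Spray was prepared by diluting compound with solvent and alkylaryl polyglycol ether emulsifier in water.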

For another data set, the system named is Leptosphaeria nodorum. In words: Example Q: in vivo test on Leptosphaeria nodorum (glume blotch in wheat/protective). As to conditions: Parastagonospora nodorum, 192 h, wheat, protective, assessment 8 days after inoculation, read-out: % Wirkungsgrad. The procedure, abridged:
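Protective test: young wheat plants sprayed with compound formulated in N,N-dimethylacetamide plus alkylaryl polyglycol ether emulsifier, diluted in water to the stated dose. After drying, plants inoculated with L. nodorum spore suspension; disease assessed 8 days post-inoculation.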

For another data set, the system named is Septoria tritici. In words: Example R: in vivo test on Septoria tritici (leaf blotch in wheat/protective). As to conditions: Zymoseptoria tritici, 504 h, wheat, protective, 1000 ppm active substance, assessed 21 days after inoculation, read-out: % Wirkungsgrad (activity level). The procedure, abridged: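 Protective test: young wheat plants sprayed with compound in N,N-dimethylacetamide/alkylaryl polyglycol ether emulsifier diluted in water, dried, then inoculated with Septoria tritici spore suspension. Disease assessed 21 days after inoculation.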

The test system of the next data set is Rhynchosporium secalis. The experiment in a line: Example S: in vivo test on Rhynchosporium secalis (leaf scald in barley/protective). As to conditions: 336 h, barley, protective, 1000 ppm active substance, assessed 14 days after inoculation, read-out: % Wirkungsgrad (activity level). The protocol: Solvent: 49 parts by weight N,N-dimethylacetamide Emulsifier: 1 part by weight alkylaryl polyglycol ethers For the preparation of a suitable active substance preparation, 1 part by weight of active substance is mixed with the stated quantities of solvent and emulsifier and the concentrate is diluted to the desired concentration with water. For the testing for protective activity, young plants are sprayed with the active substance preparation at the stated application dosage. After drying of the spray coating, the plants are sprayed with spores with a spore suspension of Rhynchosporium secalis. […] 14 days after the inoculation, the assessment takes place.

For data set [4], the system named is Fusarium nivale (var. majus). In words: whole plant or invertebrate. It counts as in vivo. As to conditions: Microdochium nivale, in Triticum aestivum, 120 h, read-out: % Wirkungsgrad (activity level).
Data set [5] concerns Fusarium graminearum. The experiment in a line: whole plant or invertebrate. The class given is in vivo. As to conditions: in Hordeum vulgare, 120 h, read-out: % Wirkungsgrad (activity level).
Another data set relates to Pythium ultimum. The experiment in a line: Example U: in vivo test on Pythium ultimum (root rot/damping off in cotton/seed treatment). As to conditions: 50 g/dt; cotton seed treatment; emergence counted after 7 days. On the procedure:
The test was performed under greenhouse conditions. Cotton seeds, treated with an active compound according to the invention or a combination of active compounds according to the invention were sown in 6*6 cm size vessels, in a mixture of steamed field earth and sand (1:1). The test compound/s were dissolved in N-methyl-2-pyrrolidone and diluted to the desired concentration with water. The plants were grown at 10° C. Perlite was inoculated with mycelium from Pythium ultimum. 1 mL of the infected perlite was distributed between the treated cotton seeds. […] The assessment was made by counting the emergence.

A further data set deals with Pyricularia oryzae. In words: whole plant or invertebrate. It counts as in vivo. As to conditions: 120 h, read-out: % Activity level.
The next data set relates to Rhizoctonia solani. The experiment in a line: Example W: in vivo test on Rhizoctonia solani (sheath blight in rice/protective). As to conditions: 96 h, rice, protective, 250 ppm active substance, assessed 4 days after inoculation, read-out: % Activity level. On the procedure:
Solvent: 28.5 parts by weight acetone Emulsifier: 1.5 parts by weight alkylaryl polyglycol ethers For the preparation of a suitable active substance preparation, 1 part by weight of active substance is mixed with the stated quantities of solvent and emulsifier and the concentrate is diluted to the desired concentration with water. For the testing for protective activity, young rice plants are sprayed with the active substance preparation at the stated application dosage. One day after the treatment, the plants are inoculated with hyphae of Rhizoctonia solani. […] 4 days after the inoculation, the assessment takes place.

A further data set deals with Cochliobolus miyabeanus. The experiment in a line: Example X: in vivo test on Cochliobolus miyabeanus (brown spot disease, rice/protective). As to conditions: Bipolaris oryzae, 96 h, read-out: % Activity level.
The test system of another data set is Gibberella zeae. It counts as in vivo. As to conditions: 250 ppm; rice, protective; assessment 5 days after inoculation.
The subject of another data set is Peronospora parasitica. In words: Example A: in vivo test on Peronospora parasitica (downy mildew on white cabbage). As to conditions: Hyaloperonospora parasitica, 120 h, cabbage plants sprayed 24 hours before inoculation, scored after 5 days, read-out: % Wirkungsgrad. In outline: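 Protective spray test: inoculation with 50,000 spores/ml P. parasitica suspension followed 24 h after compound application to cotyledon-stage cabbage (variety Eminence). Plants kept moist at about 20 °C for 5 days and then rated versus controls sprayed without active substance.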

For data set [6], the system named is Sphaerotheca fuliginea. The experiment in a line: Example D: in vivo test on Sphaerotheca fuliginea (powdery mildew on cucumber). As to conditions: Podosphaera fuliginea, 288 h, cucumber plants sprayed 24 hours before inoculation, scored after 12 days, read-out: % Wirkungsgrad. In outline:
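Scoring took place 12 days after spore inoculation (100,000 spores/ml, at ca. 20/25° C., 60/70% RH) and was made against plants sprayed without active substance. Inoculation followed by 24 hours a spray of water-diluted acetone/Tween/DMSO compound suspension onto Z10 cotyledon-stage cucumbers.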

The test system of the next data set is Puccinia recondita. In words: Example F: in vivo test on Puccinia recondita (wheat brown rust). As to conditions: 240 h, wheat plants sprayed 24 hours before inoculation, scored after 10 days, read-out: % Wirkungsgrad. The protocol: In Vivo Test on Puccinia Recondita (Wheat Brown Rust) An aqueous suspension of the active substance was prepared by homogenization of a mixture of acetone/Tween/dimethyl sulphoxide and subsequent dilution with water to the desired concentration. Wheat plants (variety: Scipion) are sown in cultivation dishes on a peat-pozzolanic earth substrate (50/50) at 12° C. and sprayed at the first-leaf stage (10 cm size) with the aqueous suspension described above. As a control, plants are sprayed with an aqueous solution with no active substance. After 24 hours the plants are inoculated by spraying with an aqueous suspension of Puccinia recondita spores (100,000 spores per ml). The spores are derived from a 10 day-old infected wheat crop and are suspended in water with 2.5 ml/l Tween. […] After 10 days they are scored in comparison with the control plants.

[7] abbreviates: LogPA (logP of the stated pure compound or, in a mixture, of the main isomer, 1-substituted 3-aryl-1H-pyrazole).
The mark [8] stands for this setting: 72 h, read-out: % Inhibition des Pilzwachstums bei 50 μM.
Setting [9] is: 168 h, read-out: % Inhibition der DON/AcDON produktion bei 50 μM.

Where a name gives a salt, the structure may show the parent alone. Read-outs that look alike come from different tables or passages of the source.

In the case of `CCOC(=O)Nc1cc(-c2cn(CC(F)F)nc2-c2ccc(F)cc2)ccn1` [Compound 241], the pest or weed control at 500 ppm in the data set with Alternaria solani is 94%. This compound came in with a chromatographic logP in [1] of 2.45.

Take `CC(C)Cn1cc(-c2ccnc3c2C(C)(C)C(=O)N3C)c(-c2ccc(F)cc2)n1` [Compound 148]: the “% Activity level” value in the data set with Pyricularia grisea came out at 71%. The chromatographic logP in “physchem” (setting [7]) came out at 3.68.

`CCOC(=O)Nc1cc(-c2cn(CC3CC3(Cl)Cl)nc2-c2ccc(F)cc2)ccn1` (stereo not shown) [Compound 264]: the figures for the inhibition at 50 µM in the data set on Fusarium graminearum [2] (setting [8]) and in the data set on Fusarium graminearum [2] (setting [9]) were 17% and 99%, respectively. The chromatographic logP in [1] amounted to 3.37.

In data set [1] (pH 2.7), `Fc1ccc(-c2n[nH]cc2-c2ccncc2)cc1` [[IX-1], 4-[3-(4-Fluorophenyl)-1H-pyrazol-4-yl]pyridine hydrochloride] returned a chromatographic logP of 0.65.

`c1cc(-c2cnn(C3CCCCO3)c2)ccn1` (stereo not shown) [[XII-1], 4-[1-(Tetrahydro-2H-pyran-2-yl)-1H-pyrazol-4-yl]pyridine] came in with a chromatographic logP in data set [1] (pH 2.7) of 0.38.

As for `CCC(=O)Nc1cc(-c2cn(CC)nc2-c2ccc(F)cc2)ccn1` [Compound 198], the inhibition at 50 µM in the data set with Fusarium proliferatum (Fusarium proliferatum growth, OD 620, 5 days, read-out: % Inhibition des Pilzwachstums bei 50 μM) worked out at 99%; in the data set with Fusarium proliferatum (Fusarium proliferatum, 5 days at 20° C., HPLC-MS/MS, read-out: % Inhibition der FB1 produktion bei 50 μM), 100%; in the data set with Fusarium graminearum [2] (setting [8]) it was 100%; in the data set with Fusarium graminearum [2] (setting [9]), 100%. Further, the pest or weed control at 500 ppm is 99% with Sphaerotheca fuliginea [3] and 93% with Alternaria solani. Further, the results for the pest or weed control at 100 ppm with Plasmopara viticola and in the data set on Venturia inaequalis were 92% and 96%, respectively. Besides, the pest or weed control at 250 ppm with Botrytis cinerea was 99%; with Pyricularia oryzae, 85%; in the data set on Rhizoctonia solani, 88%; in the data set with Cochliobolus miyabeanus, 90%. For the same compound, the pest or weed control at 1000 ppm in the data set with Leptosphaeria nodorum was determined as 100%; in the data set on Septoria tritici it was 100%; in the data set on Rhynchosporium secalis, 90%; in data set [4] it was 100%; with Fusarium graminearum [5], 100%. For the same compound, the “% Activity level” value in the data set with Pythium ultimum stood at 88%; with Gibberella zeae, 80%. Further, the chromatographic logP in the data set “physchem” (LogPA) is 1.82.

`CCC[CH2][Sn]([CH2]CCC)([CH2]CCC)[c]1c(-c2ccncc2)cnn1C1CCCCO1` (stereo not shown) [[XI-1], 4-[1-(Tetrahydro-2H-pyran-2-yl)-5-(tributylstannyl)-1H-pyrazol-4-yl]pyridine]: the chromatographic logP in data set [1] (pH 2.7) is 5.09.

For the compound `CCC(C)n1cc(-c2ccncc2)c(-c2ccc(F)cc2)n1` (stereo not shown) [Compound 91], the pest or weed control at 500 ppm with Peronospora parasitica came out at 89%; in the data set with Sphaerotheca fuliginea [6], 88%; with Puccinia recondita it was 94%; with Sphaerotheca fuliginea [3], 100%; with Alternaria solani it was 95%. In addition, in the data set with Pyricularia grisea, the “% Activity level” value is 75%. Besides, the chromatographic logP in the data set “physchem” (setting [7]) came out at 1.5.
